Reference: US9204653B2, “5-fluoro pyrimidine derivatives” (DOW AGROSCIENCES LLC, priority 2008, dated 2015)
Read-outs that look alike come from different tables or passages of the source.

Tested on: Mycosphaerella graminicola; Anamorph: Septoria tritici; Bayer Code SEPTTR
Experiment: Leaf blotch of wheat, foliar fungicide treatment, one day protectant (1DP) or three day curative (3DC)
Type: in vivo, Septoria tritici on wheat plants (variety Yuma)
Details: Zymoseptoria tritici, rating of percent disease control
[1] = 24 h, one day protectant, read-out: SETTTR 1DP 25 ppm
[2] = 24 h, one day protectant, read-out: SEPTTR 1DP 100 ppm
[3] = 72 h, three day curative, read-out: SEPTTR 3DC 25 ppm
[4] = 72 h, three day curative, read-out: SEPTTR 3DC 100 ppm

Compound	pest or weed control at 25 ppm [1]	pest or weed control at 100 ppm [2]	pest or weed control at 25 ppm [3]	pest or weed control at 100 ppm [4]
COc1ccc(COc2ncc(F)c(/N=C/N(C)C)n2)cc1F [Compound 663]	76 to 100%	76 to 100%	76 to 100%	76 to 100%
CCc1ccccc1NNc1nc(OCc2ccc(F)cc2)ncc1F [Compound 667]	0 to 25%	76 to 100%	0 to 25%	76 to 100%
COCCOC(=O)Nc1nc(OCc2cccc(C#N)c2)ncc1F [Compound 668]	26 to 50%	76 to 100%	76 to 100%	76 to 100%
CN(C)/C=N/c1nc(OC(=O)Oc2ccccc2)ncc1F [Compound 669]	76 to 100%	76 to 100%	76 to 100%	76 to 100%
Cc1ccc(COc2ncc(F)c(NC(=S)NCc3ccccc3F)n2)cc1 [Compound 670]	51 to 75%	76 to 100%	51 to 75%	76 to 100%
Cc1ccc(S(=O)(=O)Oc2ncc(F)c(N)n2)cc1 [Compound 671]	76 to 100%	76 to 100%	76 to 100%	76 to 100%
O=C(CCl)Nc1nc(OCc2ccc(F)cc2)ncc1F [Compound 672]	76 to 100%	76 to 100%	76 to 100%	76 to 100%
CSc1ccc(COc2ncc(F)c(N)n2)cc1 [Compound 673]	76 to 100%	76 to 100%	76 to 100%	76 to 100%
CC[Si](CC)(CC)Nc1nc(OC(C)c2ccc(F)cc2)ncc1F (centres unmarked) [Compound 674]	76 to 100%	76 to 100%	76 to 100%	76 to 100%
CCOCNc1nc(OCc2ccc(C)cc2)ncc1F [Compound 675]	76 to 100%	76 to 100%	76 to 100%	76 to 100%
COc1ccccc1COc1ncc(F)c(NC(=O)c2ccccc2)n1 [Compound 676]	26 to 50%	76 to 100%	0 to 25%	0 to 25%
OCNc1nc(OCc2ccccc2)ncc1F [Compound 677]	76 to 100%	76 to 100%	76 to 100%	76 to 100%
CCCNC(=S)Nc1nc(OCc2ccccc2)ncc1F [Compound 678]	0 to 25%	76 to 100%	26 to 50%	76 to 100%
Fc1cnc(OCc2ccccc2)nc1/N=C/N1CCc2ccccc2C1 [Compound 679]	76 to 100%	76 to 100%	76 to 100%	76 to 100%
COc1ccc(OC)c(COc2ncc(F)c(NSc3ccccc3[N+](=O)[O-])n2)c1 [Compound 680]	0 to 25%	0 to 25%	26 to 50%	26 to 50%
Cc1ccc(COc2ncc(F)c(-n3ccnc3)n2)cc1 [Compound 681]	76 to 100%	76 to 100%	76 to 100%	76 to 100%
Nc1nc(OCc2cc(Cl)nc(Cl)c2)ncc1F [Compound 682]	76 to 100%	76 to 100%	76 to 100%	76 to 100%
Fc1cccc(COc2ncc(F)c(/N=C/N3CCOCC3)n2)c1 [Compound 684]	76 to 100%	76 to 100%	76 to 100%	76 to 100%
COc1cc(COc2ncc(F)c(NSc3ccccc3[N+](=O)[O-])n2)cc(OC)c1 [Compound 685]	0 to 25%	76 to 100%	0 to 25%	0 to 25%
Fc1ccc(COc2ncc(F)c(-n3ccnc3)n2)cc1 [Compound 688]	76 to 100%	76 to 100%	76 to 100%	76 to 100%
Nc1nc(OCc2ccc(Cl)cc2)ncc1F [Compound 689]	76 to 100%	76 to 100%	76 to 100%	76 to 100%
N#Cc1cccc(COc2ncc(F)c(NC(=O)OCc3ccccc3)n2)c1 [Compound 690]	51 to 75%	76 to 100%	76 to 100%	76 to 100%
Cc1cc(C)c(COc2ncc(F)c(N)n2)cc1C [Compound 691]	51 to 75%	76 to 100%	51 to 75%	76 to 100%
